According to patent US3954780A, “Propionic acid derivatives” (Innothera, priority 1970, dated 1976):
Values after ≈ are worked out from the molar mass of the structure shown. Values joined by “and” are separate entries in the source; they are usually repeats but may differ in a detail not shown here. Equal entries are not always repeated. Structures can show the parent of a compound that is named as a salt. Where two headings read alike, the source gives them in different places.

Columns and labels:
skin reflex = experiment: Local anaesthetic activity, conduction anaesthesia (method of Moukhtar); format: in vivo
Source text: The method of MOUKHTAR has been chosen to show the activity of the derivatives studied on conduction anaesthesia (A. MOUKHTAR, C.R. Soc. Biol. 1909-66-187,189).
The reference local anaesthetic substance used in the tests has in each case been procaine hydrochloride in 0.5% solution in an 0.9% isotonic solution of NaCl. The three concentrations used to study the local anaesthetic activity of the new derivatives are 0.50, 0.25 and 0.10%, the vehicle being the isotonic 0.9% solution of NaCl.
The average anaesthetic activity of the substances chosen is expressed comparatively to that of the reference product chosen, by calculating the ratio of the average number n of the stimulations necessary to obtain the appearance of the skin reflex in the case of the derivatives studied, to the average number (n') of the stimulation determined for the reference substance.
The procaine hydrochloride and the derivatives studied are administered by the intradermal route at the rate of 0.20 ml per injection.

[1] = Acute toxicity in the mouse (DL50, method of Miller and Tainter); details: in vivo, read-out: DL 50 (the source's name)
Source text: The acute toxicity of the amine ester derivatives of β-[ benzo(b)thienyl-3]propionic acid have been studied in the mouse by intraperitoneal and oral routes, the products being administered in an isotonic solution of sodium chloride, 0.9%, or in suspension in a dilute aqueous solution of carboxymethyl cellulose.
The calculation of the DL50 has been effected according to the method of MILLER and TAINTER (MILLER. L.C., TAINTER M.L. - Proc. Soc. Exptl. Biol. Med. 1944-57-261,264).

[2] = system: isolated ileum of the guinea-pig; experiment: Spasmolytic activity of atropinic type, acetylcholine chloride contracture; details: Tyrode 33°; for EC50: Cavia porcellus, read-out: Spasmolytic activity Atropinic type DE 50 (converted)
Source text: b. To show activity of atropinic type the contracturant used is acetylcholine chloride acting on the isolated ileum of the guinea-pig. […]

isolated rat duodenum = experiment: Spasmolytic activity of papaverinic type, barium chloride contracture; details: Tyrode 38°; for EC50: read-out: Spasmolytic activity Papaverinic type DE 50 (converted)
Method: a. To show activity of the papaverinic type, the contracturant used is barium chloride acting on the isolated rat duodenum.
The average activity of the substances studied has been effected by determining graphically their DE 30 and DE 50 these being expressed in μg for 20 ml of bath.

[3] = system: acute oedema provoked by serotonine in the rat; experiment: Anti-serotonic activity, serotonine-induced acute paw oedema; format: in vivo; details: 30 minutes before serotonine
Method: This has been researched in the rat by the technique of the acute oedema localised in the metatarsal region, provoked by the injection of 0.05 ml of a 0.01% solution of serotonine (sulphate of 5-hydroxy-tryptamine-creatinine) in an isotonic solution of sodium chloride.
The plethysmometric measurements of the paw having been subjected to the injection have been effected before, and at different times after, the injection of the serotonine.
The derivatives to be studied have been administered by the oral route 30 minutes before the serotonine.

[4] = 0.10 g/100 ml, intradermal 0.20 ml
[5] = 0.25 g/100 ml, intradermal 0.20 ml
[6] = 0.50 g/100 ml, intradermal 0.20 ml
[7] = derivative 0.10 g/100 ml vs procaine hydrochloride 0.50 g/100 ml
[8] = derivative 0.25 g/100 ml vs procaine hydrochloride 0.50 g/100 ml
[9] = derivative 0.50 g/100 ml vs procaine hydrochloride 0.50 g/100 ml

CCN(CC)CCOC(=O)c1ccc(N)cc1 [procaine hydrochloride, reference compound]
average number of stimulations for procaine hydrochloride n' (skin reflex; procaine hydrochloride 0.50 g/100 ml, intradermal 0.20 ml, hydrochloride): 30.5 and 33.9 and 36.0 and 27.2 and 29.5 and 29.2 and 33.7 and 28.2

O=C(OCCN1CCCCCC1)C(Cc1csc2ccccc12)CC1CCCO1 (stereo not drawn) [Compound 51]
LD50 ([1]; ip): 121 ± 10 mg/kg
EC50 [2]: 4.75 µg/mL (≈ 11.4 µM)
Spasmolytic activity Atropinic type DE 30 [2]: 61 μg/20 ml of bath
Spasmolytic activity Papaverinic type DE 30 (isolated rat duodenum): 3.5 μg for 20 ml of bath
EC50 (isolated rat duodenum): 0.325 µg/mL (≈ 0.782 µM)

O=C(OCCCN1CCCC1)C(Cc1csc2ccccc12)CC1CCCO1 (stereo not drawn) [Compound 54]
LD50 ([1]; ip): 100 ± 12 mg/kg
LD50 ([1]; v.o. (oral) route): 400 ± 27 mg/kg
average number of stimulations for the derivative studied n (skin reflex; [4]): 16.7
average number of stimulations for the derivative studied n (skin reflex; [5]): 25.7
average number of stimulations for the derivative studied n (skin reflex; [6]): 31.4
local anaesthetic activity n/n' (skin reflex; [7]): 0.6
local anaesthetic activity n/n' (skin reflex; [8]): 0.8
local anaesthetic activity n/n' (skin reflex; [9]): 1.1
EC50 [2]: 4.5 µg/mL (≈ 11.2 µM)
Spasmolytic activity Atropinic type DE 30 [2]: 52 μg/20 ml of bath
average percentage reduction in oedema after 1 hour ([3]; 30 mg/kg oral): 22.4%
average percentage reduction in oedema after 2 hours ([3]; 30 mg/kg oral): 16.0%
average percentage reduction in oedema after 1 hour ([3]; 50 mg/kg oral): 34.9%
average percentage reduction in oedema after 2 hours ([3]; 50 mg/kg oral): 45.0%
Spasmolytic activity Papaverinic type DE 30 (isolated rat duodenum): 9.5 μg for 20 ml of bath
EC50 (isolated rat duodenum): 0.6 µg/mL (≈ 1.49 µM)

O=C(OCCN1CCCC1)C(Cc1csc2ccccc12)CC1CCCO1 (stereo not drawn) [Compound 49]
LD50 ([1]; ip): 140 ± 9 mg/kg
LD50 ([1]; v.o. (oral) route): ~650 mg/kg
EC50 [2]: 1.4 µg/mL (≈ 3.61 µM)
Spasmolytic activity Atropinic type DE 30 [2]: 21 μg/20 ml of bath
average percentage reduction in oedema after 1 hour ([3]; 30 mg/kg oral): 17.8%
average percentage reduction in oedema after 2 hours ([3]; 30 mg/kg oral): 12.6%
Spasmolytic activity Papaverinic type DE 30 (isolated rat duodenum): 1.6 μg for 20 ml of bath
EC50 (isolated rat duodenum): 0.185 µg/mL (≈ 0.477 µM)

C=CCC(Cc1csc2ccccc12)C(=O)OCCN1CCCCCC1 (stereo not drawn) [Compound 5]
LD50 ([1]; ip): 150 ± 17 mg/kg
EC50 [2]: 9 µg/mL (≈ 24.2 µM)
Spasmolytic activity Atropinic type DE 30 [2]: 95 μg/20 ml of bath
Spasmolytic activity Papaverinic type DE 30 (isolated rat duodenum): 13.0 μg for 20 ml of bath
EC50 (isolated rat duodenum): 1 µg/mL (≈ 2.69 µM)

O=C(OCCCN1CCCCC1)C(Cc1csc2ccccc12)CC1CCCO1 (stereo not drawn) [Compound 55]
LD50 ([1]; ip): 85 ± 12 mg/kg
LD50 ([1]; v.o. (oral) route): ~450 mg/kg
average percentage reduction in oedema after 1 hour ([3]; 30 mg/kg oral): 12.3%
average percentage reduction in oedema after 2 hours ([3]; 30 mg/kg oral): 11.3%
average percentage reduction in oedema after 1 hour ([3]; 50 mg/kg oral): 40.7%
average percentage reduction in oedema after 2 hours ([3]; 50 mg/kg oral): 39.8%
Spasmolytic activity Papaverinic type DE 30 (isolated rat duodenum): 3.5 μg for 20 ml of bath
EC50 (isolated rat duodenum): 0.375 µg/mL (≈ 0.902 µM)

O=C(OCCCN1CCCC1)C(Cc1cccs1)Cc1csc2ccccc12 (stereo not drawn) [Compound 43]
LD50 ([1]; ip): 160 ± 11 mg/kg
Spasmolytic activity Papaverinic type DE 30 (isolated rat duodenum): 7.0 μg for 20 ml of bath
EC50 (isolated rat duodenum): 1.25 µg/mL (≈ 3.02 µM)

O=C(OCCN1CCCCC1)C(Cc1csc2ccccc12)CC1CCCO1 (stereo not drawn) [Compound 50]
LD50 ([1]; ip): 122 ± 12 mg/kg
EC50 [2]: 3.5 µg/mL (≈ 8.72 µM)
Spasmolytic activity Atropinic type DE 30 [2]: 48 μg/20 ml of bath
Spasmolytic activity Papaverinic type DE 30 (isolated rat duodenum): 5.0 μg for 20 ml of bath
EC50 (isolated rat duodenum): 0.6 µg/mL (≈ 1.49 µM)

CCN(CC)CCCOC(=O)C(Cc1csc2ccccc12)CC1CCCO1 (stereo not drawn) [Compound 53]
LD50 ([1]; ip): 145 ± 9 mg/kg
LD50 ([1]; v.o. (oral) route): 1150 ± 78 mg/kg
average number of stimulations for the derivative studied n (skin reflex; [4]): 14.2
average number of stimulations for the derivative studied n (skin reflex; [5]): 29.1
average number of stimulations for the derivative studied n (skin reflex; [6]): 33.2
local anaesthetic activity n/n' (skin reflex; [7]): 0.5
local anaesthetic activity n/n' (skin reflex; [8]): 1.0
local anaesthetic activity n/n' (skin reflex; [9]): 1.2
EC50 [2]: 7 µg/mL (≈ 17.3 µM)
Spasmolytic activity Atropinic type DE 30 [2]: 75 μg/20 ml of bath
average percentage reduction in oedema after 1 hour ([3]; 30 mg/kg oral): 19.4%
average percentage reduction in oedema after 2 hours ([3]; 30 mg/kg oral): 15.1%
average percentage reduction in oedema after 1 hour ([3]; 50 mg/kg oral): 40.6%
average percentage reduction in oedema after 2 hours ([3]; 50 mg/kg oral): 42.9%
Spasmolytic activity Papaverinic type DE 30 (isolated rat duodenum): 4.5 μg for 20 ml of bath
EC50 (isolated rat duodenum): 0.4 µg/mL (≈ 0.991 µM)

C=CCC(Cc1csc2ccccc12)C(=O)OCCCN(C)C (stereo not drawn) [Compound 6]
LD50 ([1]; ip): ~120 mg/kg
Spasmolytic activity Papaverinic type DE 30 (isolated rat duodenum): 9.0 μg for 20 ml of bath
EC50 (isolated rat duodenum): 1 µg/mL (≈ 3.02 µM)

CCN(CC)CCCOC(=O)C(Cc1cccs1)Cc1csc2ccccc12 (stereo not drawn) [Compound 42]
LD50 ([1]; ip): 240 ± 18 mg/kg
EC50 [2]: 15 µg/mL (≈ 36.1 µM)
Spasmolytic activity Atropinic type DE 30 [2]: 190 μg/20 ml of bath
Spasmolytic activity Papaverinic type DE 30 (isolated rat duodenum): 3.5 μg for 20 ml of bath
EC50 (isolated rat duodenum): 0.85 µg/mL (≈ 2.05 µM)

C=CCC(Cc1csc2ccccc12)C(=O)OCCCN(CC)CC (stereo not drawn) [Compound 7, citrate of the N,N-diethylamino propyl esters of x-allyl-β-[benzo(b)thienyl-3]propionic acid]
LD50 ([1]; ip): 210 ± 10 mg/kg
LD50 ([1]; v.o. (oral) route): 1290 ± 80 mg/kg
average number of stimulations for the derivative studied n (skin reflex; [4]): 12.2
average number of stimulations for the derivative studied n (skin reflex; [5]): 18.9
average number of stimulations for the derivative studied n (skin reflex; [6]): 29.5
local anaesthetic activity n/n' (skin reflex; [7]): 0.3
local anaesthetic activity n/n' (skin reflex; [8]): 0.6
local anaesthetic activity n/n' (skin reflex; [9]): 1.0
EC50 [2]: 16.2 µg/mL
Spasmolytic activity Atropinic type DE 30 [2]: 170 μg/20 ml of bath
average percentage reduction in oedema after 1 hour ([3]; 50 mg/kg oral): 27.6%
average percentage reduction in oedema after 2 hours ([3]; 50 mg/kg oral): 36.6%
Spasmolytic activity Papaverinic type DE 30 (isolated rat duodenum): 2.2 μg for 20 ml of bath
EC50 (isolated rat duodenum): 0.225 µg/mL

O=C(OCCN1CCCC1)C(Cc1cccs1)Cc1csc2ccccc12 (stereo not drawn) [Compound 37]
LD50 ([1]; ip): 320 ± 21 mg/kg
EC50 [2]: 4 µg/mL (≈ 10 µM)
Spasmolytic activity Atropinic type DE 30 [2]: 50 μg/20 ml of bath
Spasmolytic activity Papaverinic type DE 30 (isolated rat duodenum): 6.8 μg for 20 ml of bath
EC50 (isolated rat duodenum): 0.65 µg/mL (≈ 1.63 µM)

O=C(OCCN1CCCC1)C(Cc1ccccc1)Cc1csc2ccccc12 (stereo not drawn) [Compound 26]
EC50 [2]: 7 µg/mL (≈ 17.8 µM)
Spasmolytic activity Atropinic type DE 30 [2]: 50 μg/20 ml of bath
Spasmolytic activity Papaverinic type DE 30 (isolated rat duodenum): 5.5 μg for 20 ml of bath
EC50 (isolated rat duodenum): 0.6 µg/mL (≈ 1.52 µM)

O=C(OCCCN1CCCC1)C(Cc1ccccc1)Cc1csc2ccccc12 (stereo not drawn) [Compound 31]
EC50 [2]: 3.25 µg/mL (≈ 7.97 µM)
Spasmolytic activity Atropinic type DE 30 [2]: 40 μg/20 ml of bath
Spasmolytic activity Papaverinic type DE 30 (isolated rat duodenum): 16.0 μg for 20 ml of bath
EC50 (isolated rat duodenum): 1.4 µg/mL (≈ 3.43 µM)

C=CCC(Cc1csc2ccccc12)C(=O)OC(C)CN1CCCC1 (stereo not drawn) [Compound 11]
LD50 ([1]; ip): 270 ± 59 mg/kg
Spasmolytic activity Papaverinic type DE 30 (isolated rat duodenum): 4.0 μg for 20 ml of bath
EC50 (isolated rat duodenum): 0.6 µg/mL (≈ 1.68 µM)

O=C(OCCN1CCCC1)C(Cc1csc2ccccc12)c1ccccc1 (stereo not drawn) [Compound 14]
EC50 [2]: 7 µg/mL (≈ 18.4 µM)
Spasmolytic activity Atropinic type DE 30 [2]: 90 μg/20 ml of bath
Spasmolytic activity Papaverinic type DE 30 (isolated rat duodenum): 18.0 μg for 20 ml of bath
EC50 (isolated rat duodenum): 1.75 µg/mL (≈ 4.61 µM)

CCN(CC)CCOC(=O)C(Cc1ccccc1)Cc1csc2ccccc12 (stereo not drawn) [Compound 25]
EC50 [2]: 6 µg/mL (≈ 15.2 µM)
Spasmolytic activity Atropinic type DE 30 [2]: 60 μg/20 ml of bath
Spasmolytic activity Papaverinic type DE 30 (isolated rat duodenum): 9.0 μg for 20 ml of bath
EC50 (isolated rat duodenum): 0.9 µg/mL (≈ 2.28 µM)

O=C(OCCN1CCCCCC1)C(Cc1ccccc1)Cc1csc2ccccc12 (stereo not drawn) [Compound 28]
EC50 [2]: 250 µg/mL (≈ 593 µM)
Spasmolytic activity Atropinic type DE 30 [2]: 750 μg/20 ml of bath
Spasmolytic activity Papaverinic type DE 30 (isolated rat duodenum): 6.5 μg for 20 ml of bath
EC50 (isolated rat duodenum): 0.7 µg/mL (≈ 1.66 µM)
